# Data published in patent publication US9890149B2 (NuBridge BioSciences, priority 2015, dated 2018).
# Target: T1, ΔF508 mutant CFTR (Homo sapiens, UniProt P13569, DEL508-508)
# T1 construct: expressed in transfected cells; host or cells: Fischer rat thyroid (FRT) cells
# Experiment: Fluorescence Assay (halide-sensitive YFP, iodide influx) for ΔF508 mutant CFTR activity
# Type: cell-based
# Conditions: FRT cells expressing ΔF508-CFTR and YFP-H148Q/I152L, incubated 27° C. 20-24 h; forskolin (20 μM) and test compounds (20 μM) for 20 min; rate of fluorescence quenching by I−, normalized to forskolin alone
# From the text: The ΔF508 mutant CFTR activities of the CFTR modulators are detected using the Fluorescence Assay developed by Pedemonte (Pedemonte N., et al., Antihypertensive 1,4-dihydropyridines as correctors of the cystic fibrosis transmembrane conductance regulator channel gating defect caused by cystic fibrosis mutations, Mol. Pharmacol., 2005, 68, 1736-1746).
# Fischer rat thyroid (FRT) cells, stably transfected with ΔF508 were retransfected with the YFP-H148Q/I152L fluorescent protein. The cells were plated (100,000 cells/well) on black 96-well microplates with clear plastic bottom (Corning Life Sciences, Acton, Mass.).
# The 96-well microplates containing FRT cells expressing F508-CFTR and the halide-sensitive YFP were incubated at 27° C. for 20 to 24 h to allow rescue of the mutant protein to the plasma membrane. After incubation, cells were washed with PBS (containing 137 mM NaCl, 2.7 mM KCl, 8.1 mM Na2HPO4, 1.5 mM KH2PO4, 1 mM CaCl2, and 0.5 mM MgCl2) and stimulated for 20 min with forskolin (20 μM) and test compounds (20 μM) in a final volume of […] Microplates were then transferred to a microplate reader for CFTR activity determination.
# T1 sequence (P13569 with tags, fused parts or gaps DEL508-508): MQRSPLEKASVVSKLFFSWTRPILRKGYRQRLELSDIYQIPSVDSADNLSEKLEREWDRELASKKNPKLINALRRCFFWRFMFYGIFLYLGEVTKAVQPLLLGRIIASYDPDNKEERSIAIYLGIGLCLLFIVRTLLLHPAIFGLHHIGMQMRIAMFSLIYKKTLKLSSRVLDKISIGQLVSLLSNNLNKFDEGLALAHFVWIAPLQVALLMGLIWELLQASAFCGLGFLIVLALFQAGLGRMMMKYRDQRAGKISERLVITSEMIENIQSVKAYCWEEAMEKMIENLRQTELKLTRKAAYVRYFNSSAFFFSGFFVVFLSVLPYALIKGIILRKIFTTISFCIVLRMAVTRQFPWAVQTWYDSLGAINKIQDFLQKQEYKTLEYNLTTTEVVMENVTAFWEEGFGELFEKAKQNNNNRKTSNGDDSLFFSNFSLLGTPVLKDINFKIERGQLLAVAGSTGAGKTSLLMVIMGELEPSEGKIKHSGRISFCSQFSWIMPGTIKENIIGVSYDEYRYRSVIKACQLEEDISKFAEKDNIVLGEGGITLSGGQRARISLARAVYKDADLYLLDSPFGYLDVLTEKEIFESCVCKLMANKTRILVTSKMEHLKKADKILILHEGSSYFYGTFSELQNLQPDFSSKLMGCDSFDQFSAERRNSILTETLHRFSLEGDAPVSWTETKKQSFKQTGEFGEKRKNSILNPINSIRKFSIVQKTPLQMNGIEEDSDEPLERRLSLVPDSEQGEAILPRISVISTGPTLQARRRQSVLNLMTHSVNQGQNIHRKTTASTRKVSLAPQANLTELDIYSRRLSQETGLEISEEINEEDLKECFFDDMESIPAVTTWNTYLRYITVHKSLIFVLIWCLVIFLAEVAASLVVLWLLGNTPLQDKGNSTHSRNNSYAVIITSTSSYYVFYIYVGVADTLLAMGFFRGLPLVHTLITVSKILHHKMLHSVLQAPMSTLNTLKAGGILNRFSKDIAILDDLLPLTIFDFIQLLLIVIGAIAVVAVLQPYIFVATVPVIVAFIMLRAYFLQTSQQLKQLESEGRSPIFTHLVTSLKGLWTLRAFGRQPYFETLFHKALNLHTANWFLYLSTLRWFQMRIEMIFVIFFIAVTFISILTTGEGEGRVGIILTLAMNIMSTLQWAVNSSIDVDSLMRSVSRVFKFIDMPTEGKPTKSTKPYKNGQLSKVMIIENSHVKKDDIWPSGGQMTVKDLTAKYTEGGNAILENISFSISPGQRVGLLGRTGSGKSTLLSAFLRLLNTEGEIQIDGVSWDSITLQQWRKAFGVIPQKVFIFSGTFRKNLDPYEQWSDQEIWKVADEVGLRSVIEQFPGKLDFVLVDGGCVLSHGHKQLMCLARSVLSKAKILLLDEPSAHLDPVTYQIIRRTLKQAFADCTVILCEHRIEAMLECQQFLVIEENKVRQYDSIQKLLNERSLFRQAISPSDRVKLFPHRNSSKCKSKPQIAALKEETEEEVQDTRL
compound,measurement,value
"Cl.NCC(CCl)Oc1sncc1NC(=O)c1nc(-c2c(F)cccc2F)c(F)cc1N (stereo not shown) [Example 33, 3-amino-N-(5-((1-amino-3-chloropropan-2-yl)oxy)isothiazol-4-yl)-6-(2,6-difluorophenyl)-5-fluoropicolinamide hydrochloride]",CFTR Activity,1.6
